Measurements reported in PubChem BioAssay (NCI).
Several values for one entry are separate records, joined by “and”; a condition that tells them apart may be missing. Identical values can stand only once.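 Growth conditions: 96-well plates. Treatment: test compound, 48 hours, 5 concentrations. Analysis: linear interpolation between bracketing concentrations; unreached endpoints set to highest concentration. Here, GI50 denotes the concentration required for 50% inhibition of growth. TGI: concentration producing complete growth inhibition.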

Tests used:
Test in all cases: growth of human tumour cells (NCI), 48 h
[1] = test system: A549 NSCLC
[2] = test system: HCT-116 colon
[3] = test system: HL-60(TB) leukemia
[4] = test system: HOP-92 NSCLC
[5] = test system: K-562 leukemia
[6] = test system: M14 melanoma
[7] = test system: NCI-H226 lung
[8] = test system: OVCAR-8 ovarian
[9] = test system: U251 CNS
[10] = test system: UO-31 renal

Compound: CC(=O)O[C@H]1CC2C(C3CC[C@H](C(C)CCC(=O)O)[C@]31C)[C@H](OC(C)=O)C[C@@H]1CC3(CC[C@]21C)OOC1(CCC(C)CC1)OO3 (some centres undefined)
- TGI [1]: 13.4 µM and 3.86 µM
- TGI [2]: 13.9 µM and 5.9 µM
- TGI [3]: 11.2 µM and 4.41 µM
- GI50 [4]: 10.1 µM and 2.34 µM
- TGI [4]: 23.2 µM and 5.95 µM
- TGI [5]: 16.8 µM and 6.21 µM
- TGI [6]: 19.3 µM and 10.9 µM
- GI50 [7]: 4.56 µM and 2.11 µM
- TGI [7]: 22.8 µM and 5.34 µM
- TGI [8]: 14.1 µM and 5.66 µM
- TGI [9]: 17.2 µM and 3.71 µM
- TGI [10]: 7.91 µM and 3 µM

Compound: NC(N)=NCCCC(NCc1c2ccccc2nc2ccccc12)C(=O)O (centres undefined)
- TGI [1]: > 100 µM
- TGI [2]: > 100 µM
- TGI [3]: 44.1 µM
- TGI [4]: > 83.5 µM
- TGI [5]: > 89.4 µM
- TGI [6]: > 100 µM
- TGI [7]: > 100 µM
- TGI [8]: > 86 µM
- TGI [9]: > 100 µM
- TGI [10]: > 100 µM

Compound: COc1ccc(/C=C2\CCC/C(=C\c3ccc(OC)c(OC)c3)C2=O)cc1OC
- GI50 [1]: 1790 nM
- TGI [1]: > 32.5 µM
- GI50 [2]: 1140 nM
- TGI [2]: 5.07 µM
- GI50 [3]: 2250 nM
- TGI [3]: > 32.5 µM
- GI50 [4]: 11.3 µM
- TGI [4]: > 32.5 µM
- GI50 [5]: 2280 nM
- TGI [5]: > 32.5 µM
- GI50 [6]: 1900 nM
- TGI [6]: > 32.5 µM
- GI50 [7]: 21.9 µM
- TGI [7]: > 32.5 µM
- GI50 [8]: 1160 nM
- TGI [8]: > 32.5 µM
- GI50 [9]: 1400 nM
- TGI [9]: > 32.5 µM
- GI50 [10]: 3630 nM
- TGI [10]: > 32.5 µM

Compound: CCCCCC(=O)O[C@]1(C(C)=O)CCC2C3CCC4=CC(=O)CC[C@]4(C)C3CC[C@@]21C (some centres undefined)
- GI50 [1]: 2780 nM
- TGI [1]: 15.9 µM
- GI50 [2]: 1750 nM
- TGI [2]: 4.23 µM
- GI50 [3]: 2250 nM
- TGI [3]: 4.7 µM
- GI50 [4]: 0.766 µM
- TGI [4]: 3.31 µM
- GI50 [5]: 3190 nM
- TGI [5]: 21.9 µM
- GI50 [6]: 2550 nM
- TGI [6]: 6.85 µM
- GI50 [7]: 1.8 µM
- TGI [7]: 4.78 µM
- GI50 [8]: 2610 nM
- TGI [8]: 10.7 µM
- GI50 [9]: 1780 nM
- TGI [9]: 4.15 µM
- GI50 [10]: 1930 nM
- TGI [10]: 10.3 µM

Compound: COc1ccc(C(O)c2cc3c(N)c(C(=O)Nc4cccc5ccccc45)sc3nc2C)cc1 (centres undefined)
- GI50 [1]: 381 nM
- TGI [1]: > 100 µM
- GI50 [2]: 318 nM
- TGI [2]: > 64 µM
- GI50 [3]: 254 nM
- TGI [3]: 0.652 µM
- GI50 [4]: 0.911 µM
- TGI [4]: > 27.5 µM
- GI50 [5]: 314 nM
- TGI [5]: > 53.9 µM
- GI50 [6]: 307 nM
- TGI [6]: > 37.7 µM
- GI50 [7]: 0.416 µM
- TGI [7]: > 88 µM
- GI50 [8]: 373 nM
- TGI [8]: > 100 µM
- GI50 [9]: 372 nM
- TGI [9]: > 42.5 µM
- GI50 [10]: 622 nM
- TGI [10]: > 75.4 µM

Compound: COc1cc(/C=C2\NC(=O)C(Cc3cc(OC)c(OC)c(C)c3OC)N(C(C)=O)C2=O)c(OC)c(C)c1OC (centres undefined)
- TGI [1]: > 100 µM
- TGI [2]: > 100 µM
- TGI [3]: 69.9 µM
- TGI [4]: > 100 µM
- TGI [5]: > 100 µM
- TGI [6]: > 100 µM
- TGI [7]: > 100 µM
- TGI [8]: > 100 µM
- TGI [9]: > 100 µM
- TGI [10]: > 100 µM

Compound: COC12C(COC(=O)NCCO)C3=C(C(=O)C(C)=C(N)C3=O)N1CC1NC12 (centres undefined)
- GI50 [1]: 29700 nM
- TGI [1]: > 264 µM
- GI50 [2]: 35100 nM
- TGI [2]: 114 µM
- TGI [3]: > 264 µM
- GI50 [4]: 76.3 µM
- TGI [4]: 222 µM
- TGI [5]: > 264 µM
- GI50 [6]: 49900 nM
- TGI [6]: > 264 µM
- GI50 [7]: 30.2 µM
- TGI [7]: 71 µM and 150 µM
- GI50 [8]: 55000 nM
- TGI [8]: > 264 µM
- GI50 [9]: 45400 nM
- GI50 [10]: > 264000 nM
- TGI [10]: > 264 µM

Compound: O=[N+]([O-])c1ccc(-c2ccc(C3=Nn4c(CNc5ccccc5Cl)nnc4SC3)o2)cc1
- TGI [1]: > 100 µM
- TGI [2]: > 100 µM
- TGI [3]: > 100 µM
- TGI [4]: > 100 µM
- TGI [5]: > 100 µM
- TGI [6]: > 100 µM
- TGI [7]: > 100 µM
- TGI [8]: > 100 µM
- TGI [9]: > 100 µM
- TGI [10]: > 100 µM
